The experiment concerns the target Glycogen synthase kinase-3 alpha (Homo sapiens) (UniProt P49840). As to the kind of experiment: concentration-response blocking of human GSK3A – biochemical, luminescence, cell-free homogeneous, retest, dose response (AID 463203). To be noted: GSK-3 alpha enzyme, ADP-Glo luminescence, 60 min.

Activity calls are given as the source filed them.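 The calls were made as follows: active = more than half of replicate measurements showing over 20% loss of kinase signal relative to plate controls; inconclusive = some but at most half of replicates over 20% loss; inactive = no replicate over 20% signal loss.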

Our source for the AC50 values is PubChem BioAssay AID463203 (Broad Institute, 2010).

Sequence of Glycogen synthase kinase-3 alpha (Homo sapiens) (P49840 whole entry, looked up): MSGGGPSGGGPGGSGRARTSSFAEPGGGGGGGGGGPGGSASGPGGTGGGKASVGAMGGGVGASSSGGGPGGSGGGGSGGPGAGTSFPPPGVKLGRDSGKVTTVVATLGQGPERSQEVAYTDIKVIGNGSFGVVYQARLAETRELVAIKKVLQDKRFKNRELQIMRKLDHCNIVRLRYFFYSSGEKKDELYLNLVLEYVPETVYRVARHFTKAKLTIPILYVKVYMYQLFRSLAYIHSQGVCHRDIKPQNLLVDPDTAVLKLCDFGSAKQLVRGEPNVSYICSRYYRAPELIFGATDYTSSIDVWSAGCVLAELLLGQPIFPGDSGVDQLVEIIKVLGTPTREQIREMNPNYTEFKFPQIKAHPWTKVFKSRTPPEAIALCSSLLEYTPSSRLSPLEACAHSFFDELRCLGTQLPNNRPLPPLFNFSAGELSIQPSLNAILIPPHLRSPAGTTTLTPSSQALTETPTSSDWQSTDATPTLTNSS

In general, AC50 refers to the concentration giving half of the maximal activity seen. Take `O=C(Nc1ccccc1N1CCOCC1)c1ccc(S(=O)(=O)NCc2ccco2)cc1`: the AC50 was > 30 µM (inactive).
As to `CCOC(=O)N1CC=C2C(C#N)=C(N)C(C#N)(C#N)[C@H](c3cccs3)[C@H]2C1`, the AC50 was 22.1 µM.
As to `O=C(CN1CCCCCC1)Nc1ccccc1Oc1ccccc1`, the AC50 is > 30 µM (inactive).
`O=C(COc1ccccc1F)NC1CC1`: the AC50 was > 30 µM (inactive).
As to `Cc1ccc(OCC(=O)N2CCN(c3nnc(-c4ccc(C)cc4)c4ccccc34)CC2)cc1`, the AC50 is > 30 µM (inactive).
On to `NS(=O)(=O)c1ccc(Nc2nc(-c3cccnc3)cs2)cc1`, for which the AC50 was > 30 µM (inactive).
The figure for `CCOc1ccc2ccccc2c1/C=N/n1cncn1` is > 30 µM (inactive).
Take `Cc1ccc(CSCCNC(=O)c2ccc(C)cc2)cc1`: the AC50 is > 30 µM (inactive).
The figure for `CCn1c(C)nc2cc(-c3nnc(-c4c(-c5ccccc5)noc4C)o3)ccc21` is > 30 µM (inactive).
With `CC(=O)O[C@@H]1[C@@H](O)[C@@H](O)[C@H](Oc2c(-c3ccc(O)cc3)oc3c(CC=C(C)C)c(O)cc(O)c3c2=O)O[C@H]1C`, the AC50 is 14.4 µM.
With `Cc1ccc2nc(Cl)c(/C=N/Nc3ccc(C(=O)O)cc3)cc2c1` the figure was > 30 µM (inactive); with `O=c1[nH]c(=S)n(CCC2=CCCCC2)c(O)c1C=NCCCn1ccnc1`, 14.3 µM; with `COc1ccc(C2CC(=O)Nc3n[nH]c(-c4ccccc4)c32)cc1OC` (stereo not given), 26.9 µM.
As to `Cc1ccnc(NC(=O)CN2C(=O)c3ccccc3S2(=O)=O)c1`, the AC50 was > 30 µM (inactive).
On to `O=C(Nc1ccc(Cl)c([N+](=O)[O-])c1)c1ccc(NCCCN2CCOCC2)c([N+](=O)[O-])c1`, for which the AC50 is > 30 µM (inactive).
Turning to `c1ccc(-c2csc3ncnc(NCc4ccccn4)c23)cc1`, the AC50 was 24.5 µM.
`COc1ccccc1C(=O)NC(C)c1ccccc1` (stereo not given): the AC50 was > 30 µM (inactive).
With `CCn1c(SCC(=O)Nc2ccc(C)cc2)nnc1-c1ccc(O)cc1` the figure was > 30 µM (inactive).
With `COc1ccc(CNC(=O)CN(CC2CCCO2)C(=O)CNS(=O)(=O)c2ccccc2)cc1` (stereo not given) the figure was > 30 µM (inactive); with `COC(=O)C1(C#N)C(c2ccccc2)C1(C(=O)OC)C(=O)OC` (stereo not given), > 30 µM (inactive); with `COCCCNc1nc(N)c([N+](=O)[O-])c(N2CCCCCC2)n1`, 9.97 µM.
For `Cc1ccc(Sc2ccc(NC(=O)CCl)cc2)cc1C`, the AC50 is > 30 µM (inactive).
For the compound `COc1cccc(Nc2nc(N)c([N+](=O)[O-])c(NCc3ccccc3)n2)c1`, the AC50 is 13.4 µM.
Consider `COC(=O)c1c(NC(=O)CN2C(=O)NC3(CCCCC3C)C2=O)sc2c1CCC2` (stereo not given), for which the AC50 is > 30 µM (inactive).
With `O=C(CSCc1ccccn1)Nc1ccccc1` the figure was > 30 µM (inactive); with `CCN(CC)c1ccc2ccc(=O)oc2c1`, > 30 µM (inactive).
For the compound `N#CC1=C2SCN(Cc3ccco3)CN2C(=O)CC1c1c(F)cccc1Cl` (stereo not given), the AC50 was > 30 µM (inactive).
The figure for `NC(=O)c1c(NC(=O)CN2C(=O)NC(Cc3ccccc3)C2=O)sc2c1CCC2` (stereo not given) is 20.3 µM; for `COc1ccc(-c2cc(C(=O)N3CCN(c4ccccc4OC)CC3)no2)cc1` it is > 30 µM (inactive); for `CCN(CC)C(=O)c1ccc(NC(=O)Nc2ccccc2F)cc1` it is 26.5 µM.
The figure for `Cc1cc2oc(C(=O)NCCc3ccc(S(N)(=O)=O)cc3)c(C)c2cc1C` is > 30 µM (inactive).
As for `Cc1ccc(N(C)C(=O)C2CCCN2S(=O)(=O)c2cccc3nsnc23)cc1` (stereo not given), the AC50 is 29.8 µM.
With `O=C(Nc1cccc(-c2cnc3ccccc3n2)c1)c1ccncc1` the figure was > 30 µM (inactive); with `O=C(O)c1cc(-c2ccc(/C=N/N3C(=O)C4C5C=CC(C6CC56)C4C3=O)o2)ccc1Cl` (stereo not given), > 30 µM (inactive).
Regarding `O=C(CSc1n[nH]c(=O)n1-c1ccc2c(c1)OCCO2)Nc1ccccc1`, the AC50 is > 30 µM (inactive).
The figure for `COc1ccc(/C=C2\Oc3cc(OCC(=O)N4CCC[C@H]4C(=O)O)ccc3C2=O)cc1OC` is > 30 µM (inactive); for `COc1cccc(CCNC(=O)c2cc(COc3c(F)cccc3F)on2)c1` it is > 30 µM (inactive).
As to `COc1ccccc1N1C(=O)C2C(c3ccccc3F)NN(C(=O)c3ccc(C)cc3)C2C1=O` (stereo not given), the AC50 is > 30 µM (inactive).
Regarding `CCOC(=O)c1cnc2cc(F)c(F)cc2c1N1CCN(C)CC1`, the AC50 is > 30 µM (inactive).
With `Cc1cc2[nH]c(=S)[nH]c2cc1C` the figure was > 30 µM (inactive).
With `C#CCSc1nnc(-c2ccc(O)cc2)o1` the figure was 25.5 µM; with `Cc1cccc(-c2nnc3n2N=C(c2ccc(Br)cc2)CS3)c1`, > 30 µM (inactive); with `Nc1nc(SCC(=O)Nc2ccc(Oc3ccccc3)cc2)n[nH]1`, > 30 µM (inactive).
With `O=[N+]([O-])c1c(NCCCO)cc(Sc2nc3ccccc3s2)c2nonc12`, the AC50 is > 30 µM (inactive).
With `Cc1cc(-c2ccccc2)c2c3c(c(-c4ccccc4)n2n1)c(=O)n(C)c(=O)n3C` the figure was > 30 µM (inactive); with `N#Cc1c2c(c(NCc3ccco3)n3c1nc1ccccc13)CCC2`, > 30 µM (inactive).
On to `N#Cc1c(-c2ccc(F)cc2)c2c([nH]c1=O)-c1ccccc1OC2`, for which the AC50 is > 30 µM (inactive).
Regarding `CSc1nc2sc3c(c2c(=O)[nH]1)CCC(C)C3` (stereo not given), the AC50 was > 30 µM (inactive).
With `O=c1oc2cc(O)ccc2c2ccccc12` the figure was > 30 µM (inactive).
The figure for `O=[N+]([O-])c1ccc(O)c(CN2CCCCCC2)c1` is > 30 µM (inactive); for `O=C(N/N=C/c1ccccn1)c1cccc(NC(=O)c2ccccc2Cl)c1` it is 15.9 µM.
In the case of `COc1ccccc1N1CCN(C(=O)c2cc(-c3ccccc3)on2)CC1`, the AC50 was > 30 µM (inactive).
Consider `Cn1c(=O)c2c(nc(NCC3CCCO3)n2Cc2ccccc2)n(C)c1=O` (stereo not given), for which the AC50 was > 30 µM (inactive).
Take `COc1cccc2cc(C(=O)NCc3ccco3)c(=O)oc12`: the AC50 was > 30 µM (inactive).
In the case of `c1ccc2c(CCNc3ncnc4nc[nH]c34)c[nH]c2c1`, the AC50 was 23.1 µM.
Turning to `COc1ccc(C(=O)c2sc3nc(-c4ccc(OC)cc4)ccc3c2N)cc1`, the AC50 was > 30 µM (inactive).
With `Brc1ccc(C2=Nn3c(nnc3-c3cccnc3)SC2)s1` the figure was > 30 µM (inactive); with `Cc1nc2c(ccc3c2ccc2nc(C)sc23)s1`, > 30 µM (inactive).
For `N#CCCn1cc(/C=N/O)c(-c2ccccc2)n1`, the AC50 is > 30 µM (inactive).
The figure for `COC(=O)c1c(NC(=O)Cc2cccs2)sc2c1CCCC2` is > 30 µM (inactive); for `CC(C)C(=O)Nc1cccc2nsnc12` it is > 30 µM (inactive).
Take `O=C1c2cnc3nc(SCc4ccc(Cl)cc4)nn3c2CC2c3ccccc3CCN12` (stereo not given): the AC50 was > 30 µM (inactive).
Turning to `CCC(=NCCO)c1c(O)n(C2CCCCC2)c(=O)[nH]c1=O`, the AC50 is 19.4 µM.
The figure for `COc1ccc(CC(=O)NCCc2cnc[nH]2)cc1` is > 30 µM (inactive); for `CC1=[N+](C)c2ccc3ccccc3c2C1(C)C` it is > 30 µM (inactive); for `O=C(Nc1cccc(-c2cnc3ccccc3n2)c1)c1cccc(NC(=O)c2ccco2)c1` it is > 30 µM (inactive).
In the case of `COCCNC(=O)c1ccc(Cn2c(=S)[nH]c3cc4c(cc3c2=O)OCO4)cc1`, the AC50 is > 30 µM (inactive).
The figure for `CC(/C=N/NC(=O)c1nnn(-c2nonc2N)c1C(C)C)=C\c1ccccc1` is > 30 µM (inactive); for `Cn1c(SCC(=O)N/N=C/C=C\c2ccco2)nc2ccccc21` it is > 30 µM (inactive).
As for `CCC(=O)C1CCCN(C(=O)CCc2nnc(-c3ccc4c(c3)OCO4)o2)C1` (stereo not given), the AC50 is > 30 µM (inactive).
The figure for `Cc1ccnc(NC(=O)CCC(=O)N(CC(=O)NCc2ccc(F)cc2)CC2CCCO2)c1` (stereo not given) is 27.9 µM.
For `CC(C)(C)c1ccc(/C=C2\Oc3cc(O)ccc3C2=O)cc1`, the AC50 was > 30 µM (inactive).
Regarding `Cc1nc(NCC2CCCO2)nc2c1C(=O)CC(C)C2` (stereo not given), the AC50 was > 30 µM (inactive).
The figure for `COc1ccccc1C(=O)NNC(=O)c1cccc(Cl)c1` is > 30 µM (inactive); for `Clc1ccc(Nc2ncn[nH]2)cc1` it is > 30 µM (inactive).
The figure for `COc1cc(Br)c(C2C(C#N)=C(N)Oc3n[nH]c(-c4cccnc4)c32)cc1OC` (stereo not given) is > 30 µM (inactive).
With `Cc1cc2nc(-c3cccnc3SCC(=O)NC(C)C)[nH]c2cc1C` the figure was > 30 µM (inactive); with `CC(=O)C1C(c2ccc(C)cc2)c2c(n[nH]c2C)CC1(C)O` (stereo not given), > 30 µM (inactive); with `COc1cc2c(cc1OC)-c1nnc(C)n1C1(CCCC1)C2`, 30.2 µM.
In the case of `Cc1ccc(-c2noc(CSc3nnnn3-c3ccccc3)n2)cc1`, the AC50 is > 30 µM (inactive).
The figure for `O=C(NCCCN1CCN(CCCNC(=O)c2ccc3c(c2)OCO3)CC1)c1ccc2c(c1)OCO2` is 27.7 µM; for `CCN1C(=O)/C(=C\c2ccco2)C(C(=O)OC)=C1C` it is > 30 µM (inactive).
The figure for `COc1ccc(C2=Nn3c(nnc3-c3ccccc3)SC2)cc1OC` is > 30 µM (inactive); for `O=C(Nc1ccc(Cl)cn1)c1cccc(S(=O)(=O)N2CCOCC2)c1` it is > 30 µM (inactive); for `COc1ccc(-c2cn3cccnc3n2)cc1NC(=O)C1CC1` it is > 30 µM (inactive).
With `Cc1cccc(C)c1NC(=O)COC(=O)Cc1ccsc1` the figure was > 30 µM (inactive).
For the compound `COc1ccc(-n2c(Cc3cccn3C)nnc2SCC(=O)Nc2ccc(F)cc2)cc1`, the AC50 is > 30 µM (inactive).
With `COc1cc(/C=N/c2oc(C)c(C)c2C#N)cc(Br)c1O` the figure was > 30 µM (inactive).
With `Cc1ccc(S(=O)(=O)N2CCN(C(=O)n3ccnc3)CC2)cc1` the figure was > 30 µM (inactive).
With `NC(=O)NCC12CC3CC(CC(C3)C1)C2` the figure was > 30 µM (inactive).
